{"source": "patent US20230416196A1", "about": "“DIMER OF BIGUANIDINES AND THEIR THERAPEUTIC USES” (INSTITUT CURIE, priority 2020, published 2023)", "key": {"dendritic cells": {"tested_on": "dendritic cells", "test": "Activation of dendritic cells (CD40, CD83, CD80, CD86 flow cytometry)", "assay_type": "cell-based, human", "settings": "LCC-12 10 μM, 24 h, LPS; FIG. 6E", "experimental": "Dendritic cells. Peripheral blood samples were collected from healthy donors (Etablissement Français du Sang). Pan monocytes were isolated by negative magnetic sorting using microbeads according to the manufacturer's instructions (Miltenyi Biotec, 130-096-537), and cultured in RPMI 1640 supplemented with glutamine, 10% fetal bovine serum and treated with granulocyte-macrophage colony-stimulating factor (GM-CSF, 100 ng/mL) and IL-4 (10 ng/mL) to induce differentiation into dendritic cells (DC). At day 5 of differentiation, DC were treated with lipopolysaccharides (LPS, 100 ng/mL, 24 h) to generate activated DC and were co-treated with LCC-12 (in-house, 10 μM, 24 h). The activation status of the dendritic cells was assessed by measuring CD40, CD83, CD80 and CD86 surface markers by flow cytometry."}, "[1]": {"test": "Copper-catalyzed oxidation of NADH by H2O2 (cell-free)", "assay_type": "biochemical", "settings": "H2O2 present; FIG. 3C", "experimental": "Copper-catalyzed oxidation of NADH. The oxidation kinetics of NADH (N4505, Sigma-Aldrich) was followed by measurement of absorbance at 340 nm using a NanoDrop 2000. Measurements were performed at 26° C. A 10 mM sodium phosphate buffer adjusted to pH=7.2 was used as solvent. Each 500 μL mixture were prepared with NADH (400 μM), imidazole (56750, Sigma-Aldrich, 10 mM), CuSO4 (451657, Sigma-Aldrich, 4 μM), LCC/K2CO3 solution (1:1) (4 μM or 400 μM), metformin/K2CO3 solution (2:1) (J63361, Alfa Aesar, 800 μM), as indicated, and a H2O2 solution (16911, Sigma-Aldrich, 2 mM from an aq. solution 25-35% in H2O2) added at the reaction start time. The concentration of NADH was calculated from the measured absorbance at 340 nm and a molar extinction coefficient of […] L mol^−1 cm^−1."}, "[2]": {"tested_on": "inflammatory macrophages (act. MDM)", "test": "Flow cytometry of CD80 and CD86 cell surface markers in activated MDM (Example 2)", "assay_type": "cell-based, human", "settings": "LCC-12 10 μM; FIG. 4F", "experimental": "Cell culture. Peripheral blood samples were collected from distinct healthy donors (Etablissement Français du Sang). Pan monocytes were isolated by negative magnetic sorting using microbeads according to the manufacturer's instructions (Miltenyi Biotec, 130-096-537), and cultured in RPMI 1640 supplemented with glutamine (Thermo Fisher Scientific, 61870010), 10% fetal bovine serum and exposed to granulocyte-macrophage colony-stimulating factor (GM-CSF, Miltenyi Biotec, 130-093-866, 100 ng/mL) to induce differentiation into macrophages (MDM). At day 5 of differentiation, MDM were treated with lipopolysaccharides (LPS, InvivoGen, tlrl-3pelps, 100 ng/mL, 24 h) and interferon-γ (IFNγ, Miltenyi Biotec, 130-096-484, 20 ng/mL, 24 h) to generate activated MDM (act. MDM) and were co-treated with metformin (Met, 1,1-dimethylbiguanid hydrochloride, Alfa Aesar, J63361, 10 mM, 24 h) or LCC-12 (in-house, 10 μM, 24 h) as indicated.\nFlow cytometry. […] Macrophages were analyzed with an antibody panel consisting of antibodies against the following cell surface proteins: CD44, CD80, CD86 and TfR1. The data were analyzed with FlowJo software v. […] Flow cytometry analysis of lysosomal iron content: Lysosomal iron was monitored by incubating cells at 37° C. with 5% CO2 in medium containing RhoNox-M (in-house, 1 μM, 1 h), before flow analysis of fluorescence intensity."}, "[3]": {"tested_on": "mice challenged by cecal ligation and puncture", "test": "Murine model of sepsis using cecal ligation and puncture (CLP)", "assay_type": "in vivo, BALB/c mice", "experimental": "Murine model of sepsis using cecal ligation and puncture. All animal-related research is conducted in accordance with 2010/63/EU and National legislation regulating the use of laboratory animals in scientific research and for other purposes (Official Gazette 55/13). An Institutional Committee on Animal Research Ethics (CEEA-047) oversees that animal-related procedures are not compromising the animal welfare. 9 weeks-old male BALB/c mice were used for these experiments. Animals were anesthetized by isoflurane (Forene). After abdominal incision, the cecum was ligated, punctured with a gauge needle (25G or 21G), and a small amount of fecal matter was released. After the cecum was returned to the abdomen, the abdominal cavity was closed in two layers and the mice were resuscitated with 30 mL/kg body weight of saline (0.9% NaCl) administered subcutaneously. For the sham group, after abdominal incision, the cecum was manipulated but was neither ligated nor punctured. After the cecum was returned to the abdomen, the abdominal cavity was closed in two layers and the mice were resuscitated with 30 mL/kg body weight of saline administered subcutaneously. LCC-12 (0.3 mg/kg, IP) was administered at 0.3 mg/kg dose 4 h, 24 h, 48 h, 72 h and 96 h following CLP creation. Mortality incidence was monitored every 2 h up to 120 h (except from 10 pm to 6 am) post CLP creation. Dexamethasone was administered intraperitoneally at 1 mg/kg dose 5-minutes prior CLP creation."}}}
{"smiles": "N=C(N)NC(=N)NCCCCCCCCCCCCNC(=N)NC(=N)N", "note": "[LCC-12, lipophilic copper clamp C12]", "values": [{"measurement": "activation of dendritic cells", "setting": "dendritic cells", "value": "decreases the activation"}, {"measurement": "rate of NADH oxidation catalyzed by copper(II)", "setting": "[1]", "value": "more pronounced effect"}, {"measurement": "production of inflammatory macrophages according to CD80 and CD86 cell surface markers", "setting": "[2]", "value": "interfered with the production of inflammatory macrophages"}, {"measurement": "survival in CLP sepsis", "setting": "[3]; 21G needle, LCC-12 0.3 mg/kg IP, FIG. 5A", "value": "delayed death and increased survival rate"}, {"measurement": "body weight loss in CLP-induced sublethal sepsis", "setting": "[3]; 25G needle, LCC-12 0.3 mg/kg IP, FIG. 5C", "value": "reduced body weight loss"}, {"measurement": "overall gravity score of symptoms in CLP-induced sublethal sepsis", "setting": "[3]; 25G needle, LCC-12 0.3 mg/kg IP, FIG. 5D", "value": "improved the overall gravity score of symptoms"}, {"measurement": "symptoms of sepsis compared to dexamethasone", "setting": "[3]; CLP, throughout the treatments", "value": "considerably attenuated the symptoms of sepsis compared to dexamethasone"}]}
